Where “and” joins values, the source holds several entries; their conditions need not be identical. Equal entries are not always repeated. Inconclusive results and toxic doses are left out. The calls were made as follows: active = survival T/C of 150% or more; inactive = T/C below 125% in these data.
Test system: CD2F1 mice, intracerebral P388 leukemia, median survival T/C%
Assay: NCI In Vivo Anticancer Drug Screen. Data for tumor model P388 Leukemia (intracerebral) in CD2F1 (CDF1) mice
Details: endpoint: median survival time, higher = longer survival
Procedure: The antitumor activity of compounds was measured in mice bearing transplantable tumors. Survival or tumor size were measured and the results are expressed as the measurement made in the treated group (T) divided by the measurement made in the vehicle treated control group (C). The tumor model used in this assay is P388 Leukemia (intracerebral) in CD2F1 (CDF1) mice

[1] = dose: 12.5 mg/kg/injection, schedule: Q01DX009 (ip), vehicle: saline with Tween-80
[2] = dose: 25.0 mg/kg/injection, schedule: Q01DX009 (ip), vehicle: saline with Tween-80
[3] = dose: 50.0 mg/kg/injection, schedule: Q01DX009 (ip), vehicle: saline with Tween-80
[4] = dose: 400.0 mg/kg/injection, schedule: Q04DX003 (ip), vehicle: saline
[5] = dose: 32.0 mg/kg/injection, schedule: Q01DX005 (ip), vehicle: Klucel (hydroxypropylcellulose) (HPC)
[6] = dose: 64.0 mg/kg/injection, schedule: Q01DX005 (ip), vehicle: Klucel (hydroxypropylcellulose) (HPC)
[7] = dose: 128.0 mg/kg/injection, schedule: Q01DX005 (ip), vehicle: Klucel (hydroxypropylcellulose) (HPC)
[8] = dose: 256.0 mg/kg/injection, schedule: Q01DX005 (ip), vehicle: Klucel (hydroxypropylcellulose) (HPC)
[9] = dose: 12.5 mg/kg/injection, schedule: Q01DX009 (ip), vehicle: saline
[10] = dose: 25.0 mg/kg/injection, schedule: Q01DX009 (ip), vehicle: saline
[11] = dose: 50.0 mg/kg/injection, schedule: Q01DX009 (ip), vehicle: saline

Measured: T/C

Cc1cc(NC(=O)NCc2ccc(N3C(N)=NC(N)=NC3(C)C)cc2)ccc1S(=O)(=O)F
inactive: [1] 105 % of control | [2] 105 % of control | dose: 25.0 mg/kg/injection, schedule: Q04DX003 (ip), vehicle: saline with Tween-80 111 % of control | dose: 25.0 mg/kg/injection, schedule: Q04DX003 (ip), vehicle: saline 105 % of control | [3] 97 % of control | dose: 50.0 mg/kg/injection, schedule: Q04DX003 (ip), vehicle: saline with Tween-80 101 % of control | dose: 50.0 mg/kg/injection, schedule: Q04DX003 (ip), vehicle: saline 100 % of control | dose: 100.0 mg/kg/injection, schedule: Q04DX003 (ip), vehicle: saline with Tween-80 90 % of control | dose: 100.0 mg/kg/injection, schedule: Q04DX003 (ip), vehicle: saline 111 % of control | dose: 200.0 mg/kg/injection, schedule: Q04DX003 (ip), vehicle: saline with Tween-80 116 % of control | dose: 200.0 mg/kg/injection, schedule: Q04DX003 (ip), vehicle: saline 111 % of control | [4] 105 % of control

Cc1cnc(/C=N\NC(N)=S)c2cccc(N)c12
inactive: [1] 99 % of control | [2] 102 % of control | [3] 104 % of control | dose: 100.0 mg/kg/injection, schedule: Q01DX009 (ip), vehicle: saline with Tween-80 98 % of control

NC(CSC(c1ccccc1)(c1ccccc1)c1ccccc1)C(=O)O (centres undefined)
inactive: [5] 99 % of control and 106 % of control | [6] 102 % of control and 110 % of control | [7] 114 % of control and 100 % of control | [8] 121 % of control

CCCCCCC(=O)O[C@H]1CC[C@H]2[C@@H]3CCC4=CC(=O)CC[C@]4(C)[C@H]3CC[C@]12C
inactive: dose: 8.0 mg/kg/injection, schedule: Q01DX009 (ip), vehicle: saline + alcohol 122 % of control and 103 % of control | dose: 16.0 mg/kg/injection, schedule: Q01DX009 (ip), vehicle: saline + alcohol 118 % of control and 105 % of control | dose: 32.0 mg/kg/injection, schedule: Q01DX009 (ip), vehicle: saline + alcohol 120 % of control and 102 % of control | dose: 64.0 mg/kg/injection, schedule: Q01DX009 (ip), vehicle: saline + alcohol 114 % of control and 100 % of control | dose: 128.0 mg/kg/injection, schedule: Q01DX009 (ip), vehicle: saline + alcohol 118 % of control and 112 % of control

Cc1cc(OCc2nc(N)nc(N)c2-c2ccc(Cl)c(Cl)c2)ccc1NS(=O)(=O)c1cccc(S(=O)(=O)F)c1
inactive: dose: 117.0 mg/kg/injection, schedule: Q04DX003 (ip), vehicle: saline 100 % of control | dose: 176.0 mg/kg/injection, schedule: Q04DX003 (ip), vehicle: saline 100 % of control | dose: 264.0 mg/kg/injection, schedule: Q04DX003 (ip), vehicle: saline 111 % of control | [4] 111 % of control

COc1ccc(CC2C(=O)NC(C)C(=O)N(C)C3C(=O)N(C)C(Cc4ccc(O)c(c4)Oc4ccc(cc4)C3O)C(=O)NC(C)C(=O)NC(C)C(=O)N2C)cc1 (centres undefined)
inactive: dose: 0.12 mg/kg/injection, schedule: Q01DX009 (ip), vehicle: Klucel (hydroxypropylcellulose) (HPC) 91 % of control and 98 % of control | dose: 0.13 mg/kg/injection, schedule: Q01DX009 (ip), vehicle: saline 104 % of control and 108 % of control | dose: 0.25 mg/kg/injection, schedule: Q01DX009 (ip), vehicle: Klucel (hydroxypropylcellulose) (HPC) 100 % of control and 103 % of control and 109 % of control | dose: 0.25 mg/kg/injection, schedule: Q01DX009 (ip), vehicle: saline 101 % of control and 109 % of control | dose: 0.5 mg/kg/injection, schedule: Q01DX009 (ip), vehicle: Klucel (hydroxypropylcellulose) (HPC) 100 % of control and 101 % of control and 106 % of control | dose: 0.5 mg/kg/injection, schedule: Q01DX009 (ip), vehicle: saline 104 % of control and 111 % of control | dose: 1.0 mg/kg/injection, schedule: Q01DX009 (ip), vehicle: Klucel (hydroxypropylcellulose) (HPC) 95 % of control and 101 % of control and 106 % of control | dose: 1.0 mg/kg/injection, schedule: Q01DX009 (ip), vehicle: saline 97 % of control and 103 % of control | dose: 2.0 mg/kg/injection, schedule: Q01DX009 (ip), vehicle: Klucel (hydroxypropylcellulose) (HPC) 89 % of control | dose: 2.0 mg/kg/injection, schedule: Q01DX009 (ip), vehicle: saline 109 % of control and 111 % of control

[N-]=[N+]=CC(=O)CCC(N)C(=O)O (centres undefined)
inactive: dose: 0.05 mg/kg/injection, schedule: Q01DX009 (ip), vehicle: saline 107 % of control | dose: 0.2 mg/kg/injection, schedule: Q01DX009 (ip), vehicle: saline 105 % of control | dose: 0.4 mg/kg/injection, schedule: Q01DX009 (ip), vehicle: saline 103 % of control

CC(C)=CCC1=C(O)c2ccccc2C(=O)C1=O
inactive: [5] 104 % of control | [6] 104 % of control | [7] 95 % of control | [8] 92 % of control

CC[C@]1(O)C[C@H]2CN(CCc3c([nH]c4ccccc34)[C@@](C(=O)OC)(c3cc4c(cc3OC)N(C=O)[C@H]3[C@@](O)(C(=O)OC)[C@H](OC(C)=O)[C@]5(CC)C=CCN6CC[C@]43[C@@H]65)C2)C1
inactive: dose: 0.2 mg/kg/injection, schedule: Q04DX003 (ip), vehicle: water 111 % of control | dose: 0.4 mg/kg/injection, schedule: Q04DX003 (ip), vehicle: water 106 % of control | dose: 0.8 mg/kg/injection, schedule: Q04DX003 (ip), vehicle: water 116 % of control | dose: 1.6 mg/kg/injection, schedule: Q04DX003 (ip), vehicle: water 109 % of control | dose: 3.2 mg/kg/injection, schedule: Q04DX003 (ip), vehicle: water 106 % of control

CN(C)CC(=O)c1ccc(O)c(O)c1
inactive: dose: 100.0 mg/kg/injection, schedule: Q01DX005 (ip), vehicle: saline 103 % of control | dose: 100.0 mg/kg/injection, schedule: Q01DX005 (ip), vehicle: suspension in saline 93 % of control | dose: 200.0 mg/kg/injection, schedule: Q01DX005 (ip), vehicle: saline 108 % of control | dose: 200.0 mg/kg/injection, schedule: Q01DX005 (ip), vehicle: suspension in saline 104 % of control | dose: 400.0 mg/kg/injection, schedule: Q01DX005 (ip), vehicle: saline 104 % of control | dose: 400.0 mg/kg/injection, schedule: Q01DX005 (ip), vehicle: suspension in saline 107 % of control

N[C@H](C(=O)O)[C@@H]1CC(Cl)=NO1
active: dose: 4.0 mg/kg/injection, schedule: Q01DX009 (ip), vehicle: saline 168 % of control
inactive: dose: 8.0 mg/kg/injection, schedule: Q01DX009 (ip), vehicle: saline 114 % of control

CN1CC[C@]23c4c5ccc(O)c4O[C@H]2C(=O)CC[C@H]3[C@H]1C5
inactive: dose: 3.12 mg/kg/injection, schedule: Q01DX005 (iv), vehicle: saline 106 % of control | dose: 6.25 mg/kg/injection, schedule: Q01DX005 (iv), vehicle: saline 104 % of control | dose: 12.5 mg/kg/injection, schedule: Q01DX005 (iv), vehicle: saline 95 % of control

O=C1C=CN(C2OC(CO)C(O)C2O)C(=O)C1 (centres undefined)
inactive: [9] 112 % of control | [10] 106 % of control | [11] 104 % of control | dose: 100.0 mg/kg/injection, schedule: Q01DX009 (ip), vehicle: saline 106 % of control | dose: 200.0 mg/kg/injection, schedule: Q01DX009 (ip), vehicle: saline 94 % of control | dose: 400.0 mg/kg/injection, schedule: Q01DX009 (ip), vehicle: saline 94 % of control

C[n+]1c2ccccc2nc2c(N)cc(N)cc21
inactive: dose: 4.0 mg/kg/injection, schedule: Q01DX005 (ip), vehicle: suspension in saline 114 % of control and 97 % of control | dose: 8.0 mg/kg/injection, schedule: Q01DX005 (ip), vehicle: suspension in saline 94 % of control and 103 % of control | dose: 16.0 mg/kg/injection, schedule: Q01DX005 (ip), vehicle: suspension in saline 104 % of control and 106 % of control | dose: 32.0 mg/kg/injection, schedule: Q01DX005 (ip), vehicle: suspension in saline 102 % of control and 108 % of control

CC(=O)N[C@@H](Cc1ccc(N(CCCl)CCCl)cc1)C(=O)ON1C(=O)CCC1=O
inactive: dose: 1.45 mg/kg/injection, schedule: Q03HX008 (ip), vehicle: saline 105 % of control | dose: 2.9 mg/kg/injection, schedule: Q03HX008 (ip), vehicle: saline 105 % of control | dose: 5.8 mg/kg/injection, schedule: Q03HX008 (ip), vehicle: saline 115 % of control

CS(=O)(=O)CS(=O)(=O)OCCCl
inactive: dose: 6.25 mg/kg/injection, schedule: Q01DX009 (ip), vehicle: saline 110 % of control | [9] 114 % of control
active: [10] 164 % of control | [11] 203 % of control

— PubChem BioAssay AID334 (DTP/NCI, 2004)
